US7811760B2, “Vector and method for detecting the change in transcription amount” (priority 2006, dated 2010)

Biological target: T1, aryl hydrocarbon receptor (Rattus norvegicus, UniProt P41738, Q794H)
T1 construct: The SD-line rat AhR gene-coding region was amplified from the reverse-transcribed sample by means of PCR; V5-His (C-terminal tag of vector pcDNA4/V5-His B); expressed in transfected cells; host or cells: mouse neuroblastoma Neuro2a, transient transfection with LIPOFECTAMINE 2000
T1 sequence (P41738 10-853 Q794H): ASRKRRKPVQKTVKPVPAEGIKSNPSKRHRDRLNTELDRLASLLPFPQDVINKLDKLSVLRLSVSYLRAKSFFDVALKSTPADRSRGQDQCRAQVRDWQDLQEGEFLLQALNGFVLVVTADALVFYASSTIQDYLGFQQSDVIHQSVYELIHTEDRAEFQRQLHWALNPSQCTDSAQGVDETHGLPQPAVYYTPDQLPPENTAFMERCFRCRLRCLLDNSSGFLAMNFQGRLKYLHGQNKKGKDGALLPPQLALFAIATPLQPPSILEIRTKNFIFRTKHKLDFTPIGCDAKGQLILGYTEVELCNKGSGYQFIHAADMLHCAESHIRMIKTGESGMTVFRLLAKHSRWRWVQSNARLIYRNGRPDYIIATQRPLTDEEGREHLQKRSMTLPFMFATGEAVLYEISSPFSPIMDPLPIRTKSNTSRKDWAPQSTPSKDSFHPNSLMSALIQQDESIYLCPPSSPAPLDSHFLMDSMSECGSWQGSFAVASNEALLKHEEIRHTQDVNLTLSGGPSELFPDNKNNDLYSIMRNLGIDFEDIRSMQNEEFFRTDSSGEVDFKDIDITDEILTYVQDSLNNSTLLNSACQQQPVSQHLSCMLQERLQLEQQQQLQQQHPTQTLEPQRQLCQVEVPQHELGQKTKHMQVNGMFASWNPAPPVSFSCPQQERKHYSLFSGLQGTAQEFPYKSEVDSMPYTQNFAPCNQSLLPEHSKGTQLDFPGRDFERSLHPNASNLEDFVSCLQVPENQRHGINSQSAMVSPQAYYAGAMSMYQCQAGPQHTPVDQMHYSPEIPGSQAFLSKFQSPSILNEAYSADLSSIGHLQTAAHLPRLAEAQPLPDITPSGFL
Experiment: Reporter gene assay in Neuro2a with pSV40E100/Luc and pTHE100/Luc (SEQ ID No: 3)
Format: cell-based, SD-line rat
Conditions: 10 nM TCDD; pTHE100/Luc compared with pSV40E100/Luc
Procedure: The TH transcriptional regulatory region of SEQ ID No: 3 (−300 to −200 bp) was used in Example 6. The TH transcriptional regulatory region ranging from −300 to −200 position was prepared by PCR using the 500-bp size of TH transcriptional regulatory region as a template. The following primers were used.
Recognition sequences for restriction enzymes KpnI (for forward primer) and NheI (for reverse primer) were added to the terminal of the respective primers, for the purpose of facilitating incorporation of the PCR amplified fragment into the vector. The region of SEQ ID No: 3 was amplified by using Pyrobest DNA polymerase. The amplified DNA fragment was digested with restriction enzymes KpnI and NheI, and subjected to electrophoresis on agarose. The corresponding band was purified with a QIAQUICK Gel Extraction Kit, and incorporated into PGV-P2 vector previously digested with KpnI and NheI, to obtain a recombinant vector pSV40E100/Luc. The vector PGV-P2 used contains an SV40 early promoter as its promoter region.
In addition, the region of SEQ ID No: 5 (mouse TH gene core promoter region) was amplified by PCR using a forward primer: 5′-[…]-3′ (SEQ ID No: 27) and a reverse primer: 5′-[…]-3′ (SEQ ID No: 28), and using a region of approximately 500 by upstream of the TH gene as the template. […]

With `Clc1cc2c(cc1Cl)Oc1cc(Cl)c(Cl)cc1O2` [TCDD, 2,3,7,8-tetrachlorodibenzo-p-dioxine] the “activity in response to test substance, TH gene core promoter versus SV40 early promoter” value was “higher activity in response to a test substance”.
